Reference: patent publication US5849587A, “Method of inhibiting viral replication in eukaryotic cells and of inducing apoptosis of virally-infected cells” (Cornell Research Foundation, Inc., priority 1995, dated 1998)
“Also recorded” adds a separate entry of the source.

How the values were obtained:
[1] = target: T1, deoxyhypusyl hydroxylase (DOHH) in human T-cell line ACH-2 (Homo sapiens, UniProt Q9BU89); assay: Deoxyhypusine-to-hypusine conversion by DOHH in ACH-2 cells; assay type: cell-based; details: for activity at 200 µM: ACH-2, 22 h, 22 hours, ACH-2 cells, FIG. 5, remaining conversion; for resumption of conversion after inhibitor removal: within 2 hours of inhibitor removal, after 200 μM, ACH-2
T1 construct: endogenous in cells; host or cells: ACH-2 (human T-cell line, subclone of the A3.01 variant of CEM)
T1 sequence (Q9BU89 1-302): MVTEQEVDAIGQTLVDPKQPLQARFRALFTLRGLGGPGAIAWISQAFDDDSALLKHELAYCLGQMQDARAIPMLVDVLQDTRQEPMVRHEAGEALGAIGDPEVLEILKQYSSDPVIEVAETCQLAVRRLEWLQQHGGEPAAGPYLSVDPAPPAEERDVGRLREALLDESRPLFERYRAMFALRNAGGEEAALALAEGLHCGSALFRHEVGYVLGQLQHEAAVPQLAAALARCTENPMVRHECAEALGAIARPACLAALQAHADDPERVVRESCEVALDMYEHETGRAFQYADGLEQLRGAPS
Protocol: DOHH Assay. The intracellular conversion of peptide-bound deoxyhypusine to peptidyl hypusine was determined after preincubation of human T lymphocyte-derived cells (i.e. ACH-2) [Clouse et al., J. Immunol. 142, 431-438 (1989), which is hereby incorporated by reference] with the hypusine inhibitors mimosine and HK-1 for 60 minutes, followed by labeling for 21 hours with ^3 H-spermidine (3.75 μCi/ml) in wells containing 3×10^6 cells suspended in 8 ml of serum-supplemented and antibiotic-containing RPMI 1640 medium. Cells were then split into two groups, one of them being harvested immediately to assess degree of DOHH inhibition, and the other harvested after transfer of the cells into inhibitor-free medium for 2 hours to measure resumption of DOHH activity. Harvesting consisted in precipitation of washed cells with 10% TCA containing 1 mM each of putrescine, spermidine, and spermine. Cellular proteins from each sample were then hydrolyzed in 6N HCl at 110° C. for 16 hours. The hydrolysate was analyzed for labeled amino acids on an amino acid analyzer by published methods [Park et al., J. Biol. Chem., 257, 7217-7222 (1982), which is hereby incorporated by reference]. The retention times of hypusine and deoxyhypusine were determined from standards. Similar studies were performed in human B-cells and human smooth muscle cells.

GAPDH mRNA = assay: Polysomal localization of cellular GAPDH mRNA in PMA-induced ACH-2 cells; assay type: cell-based, human; details: 200 μM, FIG. 6
Protocol: (§1) 142, 431-438 (1989), which is hereby incorporated by reference]. However, vigorous HIV-1 production by ACH-2 cells is induced by addition of the phorbol ester PMA [Pomerantz et al., Cell 61, 1271-1276 (1990) and Michael et al., J. Virol 65, 1291-1303 (1991), which are hereby incorporated by reference]. This system was selected for these experiments. Logarithmically growing ACH-2 cells, suspended at a concentration of 3×10^5 /ml, were incubated with the hypusine inhibitors mimosine and HK-1 at a final concentration of 200 μM. After 8 hours, viral replication was activated by addition of PMA to these cells and to untreated controls (100 ng/ml final PMA concentration). […] An aliquot of each fraction was analyzed by slot blotting, using the pXC-1 genomic ribosomal DNA probe from rat containing the 18S rRNA coding sequence [Rimarachin, Szabo et al., In Vitro 28A, 705-707 (1992), which is hereby incorporated by reference], to determine the location within the gradient of 18S rRNA, i.e., the distribution of polysomes vs. monosomes. […] Following electrophoresis, the radio-labeled PCR products were visualized by autoradiography according to routine techniques, and the band intensities quantified by densitometric analysis and expressed relative to total product per gradient.

[2] = tested on: deoxyhypusyl hydroxylase (DOHH); details: previously established, Hanauske-Abel et al.; cited from earlier work
[3] = tested on: HIV-1 producing ACH-2 cells; assay: Electron microscopy of PMA-induced ACH-2 cells; assay type: cell-based, human
Protocol: FIGS. 11A and B show, representative ultrastructural findings observed in PMA-induced/untreated (FIG. 11A) and PMA-induced/mimosine-treated (FIG. 11B) ACH-2 cells immediately at the end of the 18-hour incubation period. […] Note, however, that such changes occur rapidly after withdrawal of the inhibitors (compare to time course detailed in FIGS. 12A and B and FIGS. 14A-H). [Magnification: 9100×].
3. Ultrastructural investigation of antiviral effect. ACH-2 cells were incubated with hypusine inhibitors (mimosine, HK-1) and induced with PMA as outlined in Example II A. Harvesting, fixation of cells, and electron microscopy were performed according to established techniques [Michael et al., J. Virol 65, 1291-1303 (1991), which is hereby incorporated by reference].

[4] = tested on: viral Gag mRNA (Rev-dependent transcripts); assay: Polysomal localization of viral Gag mRNA in PMA-induced ACH-2 cells; assay type: cell-based, HIV-1; details: 200 μM
Protocol: as §1

[5] = tested on: cellular deoxyhypusyl hydroxylase; details: Hanauske-Abel et al. 1994; cited from earlier work

| Structure (SMILES) | activity at 200 µM [1] | resumption of conversion after inhibitor removal [1] | polysomal localization of GAPDH mRNA (GAPDH mRNA) | hypusine inhibition in cell-free system [2] | cells with early apoptotic nuclear changes ([3]; PMA-induced ACH-2, FIG. 11B) | number of viral particles in extracellular space ([3]; PMA-induced ACH-2, end of 18-hour incubation, FIG. 11B) | ultrastructural appearance of treated cells ([3]; PMA-induced ACH-2, end of incubation, FIG. 11B) | polysomal localization of viral Gag mRNA ([4]; FIG. 6) | polysomal localization of viral Gag mRNA ([4]; FIG. 6, listed as minosine) | inhibition of purified and cellular deoxyhypusyl hydroxylase [5] |
| --- | --- | --- | --- | --- | --- | --- | --- | --- | --- | --- |
| Cc1c(O)c(=O)ccn1C [HK-1, 1,2-dimethyl-3-hydroxypyrid-4-one] | ≤ 10% | almost tripled; also recorded: recovers readily and triples within the first 2 hours of inhibitor removal |  |  |  |  |  |  |  |  |
| N[C@@H](Cn1ccc(=O)c(O)c1)C(=O)O [L-Mimosine] | ≤ 10% | almost tripled; also recorded: recovers readily and triples within the first 2 hours of inhibitor removal | did not affect the polysomal loading of cellular MRNA; also recorded: only a marginal effect on the distribution of GAPDH mRNA | act as hypusine inhibitors in this cell-free system | about 20% | marked reduction in the number of viral particles; also recorded: prominent reduction in the number of infectious particles in the extracellular space | normal ultrastructural appearance of the treated ACH-2 cells; also recorded: still lacks overt morphological signs of cell damage | redirects a significant portion of the Rev-dependent Gag mRNAs into the non-polysomal fractions | shifted away from the polysomal protein producing machinery into the pool of monosomal/free MRNA | inhibit purified and cellular deoxyhypusyl hydroxylase |
